How the values were obtained:
murine coronavirus (MHV) = experiment: Powdered alcohol mixed directly with MHV, L929 cell infection/TCID50 assay; assay type: cell-based, Mouse Hepatitis Virus; settings: FIG. 6; CD encapsulated ethanol vs gamma-CD alone
Experimental: The powders obtained in Example 1 were tested for their effectiveness in inactivating the murine coronavirus in 5 minutes using L929 cells. L929 cells at 5×10^5 cells/ml concentration in 100 μl volume in a 96 wells format were used. First, the virus stock was diluted 10 times in 1×PBS. Then 20 μl MHV (multiplicity of infection [MOI] 3.0) was mixed with 10 mg and 20 mg powdered alcohol for 5 minutes at room temperature with repetitive pipetting to maximise the interaction between the virus and powdered alcohol. To mitigate the potential side effects of the powdered alcohol on L929 cells, powder treated cell culture media (cDMEM) was prepared as a control. After recovering the virus and the control media from the mixture, treated samples (triplicates) were immediately diluted in 20 μl cDMEM, thereby bringing the final MOI to 1.0. In a 96 wells format, 8 serial dilutions (DF=5.0) were prepared per sample together with non-treated virus and cell culture media (cDMEM) as positive and negative controls, respectively. Cell infection phenotype as cell death and cytopathic effect (CPE) was observed under a benchtop light microscope (20× magnification) at 24-, 48- and 72-hours post infection (hpi) intervals (FIG. 4). TCID50/ml values per experiment were calculated at 72 hpi using Reed&Muench Calculator. […]

cell lines [1] = tested on: cell lines
cell lines [2] = experiment: Toxicity on cell lines seen in the antiviral experiments; settings: 8% PVA + glutaraldehyde coatings

OC[C@H]1O[C@@H]2O[C@H]3[C@H](O)[C@@H](O)[C@@H](O[C@H]4[C@H](O)[C@@H](O)[C@@H](O[C@H]5[C@H](O)[C@@H](O)[C@@H](O[C@H]6[C@H](O)[C@@H](O)[C@@H](O[C@H]7[C@H](O)[C@@H](O)[C@@H](O[C@H]8[C@H](O)[C@@H](O)[C@@H](O[C@H]9[C@H](O)[C@@H](O)[C@@H](O[C@H]1[C@H](O)[C@H]2O)O[C@@H]9CO)O[C@@H]8CO)O[C@@H]7CO)O[C@@H]6CO)O[C@@H]5CO)O[C@@H]4CO)O[C@@H]3CO [CD alone, gamma-cyclodextrin]
log reduction (murine coronavirus (MHV)): 1 log

OCl [HOCl, hypochlorous acid]
cell death and toxicity (cell lines [1]): cell death and toxicity were observed

O=CCCCC=O [glutaraldehyde]
glutaraldehyde concentration above which toxicity on cell lines was observed (cell lines [2]): higher than 0.7%

From patent publication US20240196886A1, “ANTIBACTERIAL AND/OR ANTIVIRAL COATINGS” (CODIKOAT LTD, priority 2021, published 2024)
